Experimental data taken from patent US9730937B2, “RAF kinase modulator compounds and methods of use thereof” (AMBIT BIOSCIENCES CORPORATION, priority 2008, dated 2017).

These molecules were tested on panel of 290 distinct kinases (321 in the larger panel), excluding mutant variants. Settings: asterisk: panel of 321 distinct kinases.
With `COCCOc1cc2ncnc(Sc3cccc(NC(=O)Nc4cc(C(C)C)on4)c3)c2cc1OC` [Ex 232, 1-(5-isopropylisoxazol-3-yl)-3-(3-(6-methoxy-7-(2-methoxyethoxy)quinazolin-4-ylthio)phenyl)urea] the S35 was “C* (0.20 < C ≦ 0.40)”.
`COCCOc1cc2ncnc(Oc3cccc(NC(=O)Nc4cc(C(F)(F)F)nn4C)c3)c2cc1OC` [Ex 220, 1-{3-[6-methoxy-7-(2-methoxyethoxy)quinazolin-4-yloxy]phenyl}-3-[1-methyl-3-(trifluoromethyl)-1H-pyrazol-5-yl]urea] was tested, and the S35 was “C* (0.20 < C ≦ 0.40)”.
`COCCOc1cc2ncnc(Oc3cccc(NC(=O)Nc4ccc(C(F)(F)F)c(F)c4)c3)c2cc1OC` [Ex 222, 1-(3-fluoro-4-(trifluoromethyl)phenyl)-3-(3-(6-methoxy-7-(2-methoxyethoxy)quinazolin-4-yloxy)phenyl)urea] was tested, and the S35 was “C* (0.20 < C ≦ 0.40)”.
For `COCCOc1cc2ncnc(Sc3cccc(NC(=O)Nc4ccc(C(F)(F)F)c(F)c4)c3)c2cc1OC` [Ex 231, 1-(3-fluoro-4-(trifluoromethyl)phenyl)-3-(3-(6-methoxy-7-(2-methoxyethoxy)quinazolin-4-ylthio)phenyl)urea], the S35 was “B* (0.10 < B ≦ 0.20)”.
`COCCOc1cc2ncnc(Sc3cccc(NC(=O)Nc4cc(C(F)(F)F)nn4-c4ccc(F)cc4)c3)c2cc1OC` [Ex 242, 1-[1-(4-fluorophenyl)-3-(trifluoromethyl)-1H-pyrazol-5-yl]-3-{3-[6-methoxy-7-(2-methoxyethoxy)quinazolin-4-ylthio]phenyl}urea] was tested, and the S35 was “C* (0.20 < C ≦ 0.40)”.
For `COCCOc1cc2ncnc(Sc3cccc(NC(=O)Nc4cc(C5CCCC5)on4)c3)c2cc1OC` [Ex 235, 1-(5-cyclopentylisoxazol-3-yl)-3-(3-(6-methoxy-7-(2-methoxyethoxy)quinazolin-4-ylthio)phenyl)urea], the S35 was “C* (0.20 < C ≦ 0.40)”.

Same assay, conditions: kinase selectivity score, 290 distinct kinases; class symbols
For `COCCOc1cc(NC(=O)Nc2cccc(Oc3ncnc4cc(OCCOC)c(OC)cc34)c2)cc(C(F)(F)F)c1` [Ex 117, 1-(3-(6-methoxy-7-(2-methoxyethoxy)quinazolin-4-yloxy)phenyl)-3-(3-(2-methoxyethoxy)-5-(trifluoromethyl)phenyl)urea], the S35 was “C (0.20 < C ≦ 0.40)”.
With `COc1cc(NC(=O)Nc2cccc(Sc3ncnc4cc(OC)c(OC)cc34)c2)cc(C(F)(F)F)c1` [Ex 115, 1-(3-(6,7-dimethoxyquinazolin-4-ylthio)phenyl)-3-(3-methoxy-5-(trifluoromethyl)phenyl)urea] the S35 was “C (0.20 < C ≦ 0.40)”.

Same assay, conditions: no asterisk: panel of 290 distinct kinases
With `COc1cc2ncnc(Oc3cccc(NC(=O)Nc4cc(C(C)(C)C)nn4-c4ccc(Cl)cc4)c3)c2cc1OC` [Ex 365, 1-(3-tert-butyl-1-(4-chlorophenyl)-1H-pyrazol-5-yl)-3-(3-(6,7-dimethoxyquinazolin-4-yloxy)phenyl)urea] the S35 was “D (D > 0.40)”.
For `COc1cc2ncnc(Oc3cccc(NC(=O)Nc4cc(C(F)(F)F)nn4-c4ccccc4)c3C)c2cc1OC` [Ex 291, 1-(3-(6,7-Dimethoxyquinazolin-4-yloxy)-2-methylphenyl)-3-(1-phenyl-3-(trifluoromethyl)-1H-pyrazol-5-yl)urea], the S35 was “B (0.10 < B ≦ 0.20)”.
`COc1cc2ncnc(Oc3cccc(NC(=O)Nc4cc(C(C)(C)C)nn4Cc4ccccc4)c3)c2cc1OC` [Ex 357, 1-(1-benzyl-3-tert-butyl-1H-pyrazol-5-yl)-3-(3-(6,7-dimethoxyquinazolin-4-yloxy)phenyl)urea] was tested, and the S35 was “C (0.20 < C ≦ 0.40)”.
With `COc1cc2ncnc(Oc3cccc(NC(=O)Nc4cc(C(C)(C)C)nn4-c4ccccc4)c3F)c2cc1OC` [Ex 295, 1-(3-tert-butyl-1-phenyl-1H-pyrazol-5-yl)-3-(3-(6,7-dimethoxyquinazolin-4-yloxy)-2-fluorophenyl)urea] the S35 was “C (0.20 < C ≦ 0.40)”.
With `COc1cc2ncnc(Oc3cccc(NC(=O)Nc4cc(C(C)(C)C)nn4-c4ccc(C)cc4)c3)c2cc1OC` [Ex 274, 1-(3-tert-butyl-1-p-tolyl-1H-pyrazol-5-yl)-3-(3-(6,7-dimethoxyquinazolin-4-yloxy)phenyl)urea] the S35 was “D (D > 0.40)”.
In the case of `COc1cc2ncnc(Oc3cccc(NC(=O)Nc4cc(C(C)(C)C(F)(F)F)no4)c3)c2cc1OC` [Ex 267, 1-(3-(6,7-dimethoxyquinazolin-4-yloxy)phenyl)-3-(3-(1,1,1-trifluoro-2-methylpropan-2-yl)isoxazol-5-yl)urea], the S35 was “C (0.20 < C ≦ 0.40)”.
With `CCOc1cc2ncnc(Sc3cccc(NC(=O)Nc4cc(C(C)(CF)CF)on4)c3)c2cc1OC` [Example 388, 1-(5-(1,3-difluoro-2-methylpropan-2-yl)isoxazol-3-yl)-3-(3-(7-ethoxy-6-methoxyquinazolin-4-ylthio)phenyl)urea] the S35 was “C (0.20 < C ≦ 0.40)”.
In the case of `COc1cc2ncnc(Oc3cc(NC(=O)Nc4cc(C(F)(F)F)nn4-c4ccccc4)ccc3F)c2cc1OC` [Ex 397, 1-(3-(6,7-Dimethoxyquinazolin-4-yloxy)-4-fluorophenyl)-3-(1-phenyl-3-(trifluoromethyl)-1H-pyrazol-5-yl)urea], the S35 was “C (0.20 < C ≦ 0.40)”.
For `COc1cc2ncnc(Sc3cccc(NC(=O)Nc4cc(C(C)(C)C)nn4Cc4ccccc4)c3)c2cc1OC` [Ex 358, 1-(1-benzyl-3-tert-butyl-1H-pyrazol-5-yl)-3-(3-(6,7-dimethoxyquinazolin-4-ylthio)phenyl)urea], the S35 was “C (0.20 < C ≦ 0.40)”.
In the case of `COc1cc2ncnc(Oc3cccc(NC(=O)Nc4cc(C(C)(C)C(F)(F)F)on4)c3)c2cc1OC` [Ex 259, 1-(3-(6,7-dimethoxyquinazolin-4-yloxy)phenyl)-3-(5-(1,1,1-trifluoro-2-methylpropan-2-yl)isoxazol-3-yl)urea], the S35 was “C (0.20 < C ≦ 0.40)”.
`COc1cc2ncnc(Oc3cccc(NC(=O)Nc4cc(C(C)(C)C)on4)c3C)c2cc1OC` [Ex 290, 1-(5-tert-butylisoxazol-3-yl)-3-(3-(6,7-dimethoxyquinazolin-4-yloxy)-2-methylphenyl)urea] was tested, and the S35 was “C (0.20 < C ≦ 0.40)”.
For `COc1cc2ncnc(Sc3cccc(NC(=O)Nc4cc(C(C)(C)C)nn4-c4ccccc4F)c3)c2cc1OC` [Ex 371, 1-(3-tert-butyl-1-(2-fluorophenyl)-1H-pyrazol-5-yl)-3-(3-(6,7-dimethoxyquinazolin-4-ylthio)phenyl)urea], the S35 was “D (D > 0.40)”.
In the case of `CCOc1cc2ncnc(Oc3cccc(NC(=O)Nc4cc(C(C)(C)F)no4)c3)c2cc1OC` [Ex 385, 1-(3-(7-ethoxy-6-methoxyquinazolin-4-yloxy)phenyl)-3-(3-(2-fluoropropan-2-yl)isoxazol-5-yl)urea], the S35 was “C (0.20 < C ≦ 0.40)”.
For `COCCOc1cc2ncnc(Sc3cccc(NC(=O)Nc4cc(C(C)(C)C)nn4-c4ccc(C)cc4C)c3)c2cc1OC` [Ex 283, 1-(3-tert-butyl-1-(2,4-dimethylphenyl)-1H-pyrazol-5-yl)-3-(3-(6-methoxy-7-(2-methoxyethoxy)quinazolin-4-ylthio)phenyl)urea], the S35 was “C (0.20 < C ≦ 0.40)”.
With `CCOc1cc2c(Oc3cccc(NC(=O)Nc4cc(C(C)(CF)CF)on4)c3)ncnc2cc1OC` [Ex 393, 1-(5-(1,3-difluoro-2-methylpropan-2-yl)isoxazol-3-yl)-3-(3-(6-ethoxy-7-methoxyquinazolin-4-yloxy)phenyl)urea] the S35 was “C (0.20 < C ≦ 0.40)”.
For `COc1cc2ncnc(Sc3cccc(NC(=O)Nc4cc(C(C)(C)C)nn4-c4ccc(C)cc4C)c3)c2cc1OC` [Ex 284, 1-(3-tert-butyl-1-(2,4-dimethylphenyl)-1H-pyrazol-5-yl)-3-(3-(6,7-dimethoxyquinazolin-4-ylthio)phenyl)urea], the S35 was “C (0.20 < C ≦ 0.40)”.
`COc1cc2ncnc(Oc3cccc(NC(=O)Nc4cnn(C(C)(C)C)c4)c3)c2cc1OC` [Ex 252, 1-(1-tert-butyl-1H-pyrazol-4-yl)-3-(3-(6,7-dimethoxyquinazolin-4-yloxy)phenyl)urea] was tested, and the S35 was “C (0.20 < C ≦ 0.40)”.
With `COCCOc1cc2ncnc(Sc3cccc(NC(=O)Nc4cc(C(C)(C)C)nn4-c4cccc(C)c4)c3)c2cc1OC` [Ex 287, 1-(3-tert-butyl-1-m-tolyl-1H-pyrazol-5-yl)-3-(3-(6-methoxy-7-(2-methoxyethoxy)quinazolin-4-ylthio)phenyl)urea] the S35 was “D (D > 0.40)”.
`COc1cc2ncnc(Oc3cccc(NC(=O)Nc4cc(C(C)(C)CN5CCOCC5)on4)c3)c2cc1OC` [Ex 302, 1-(3-(6,7-dimethoxyquinazolin-4-yloxy)phenyl)-3-(5-(2-methyl-1-morpholinopropan-2-yl)isoxazol-3-yl)urea] was tested, and the S35 was “B (0.10 < B ≦ 0.20)”.
For `CCOc1cc2ncnc(Oc3cccc(NC(=O)Nc4cc(C(C)(CF)CF)on4)c3)c2cc1OC` [Ex 386, 1-(5-(1,3-difluoro-2-methylpropan-2-yl)isoxazol-3-yl)-3-(3-(7-ethoxy-6-methoxyquinazolin-4-yloxy)phenyl)urea], the S35 was “C (0.20 < C ≦ 0.40)”.
For `COc1cc2ncnc(Oc3ccc(F)c(NC(=O)Nc4cc(C(C)(C)C)on4)c3)c2cc1OC` [Ex 367, 1-(5-tert-butylisoxazol-3-yl)-3-(5-(6,7-dimethoxyquinazolin-4-yloxy)-2-fluorophenyl)urea], the S35 was “D (D > 0.40)”.
`COc1cc2c(Oc3cccc(NC(=O)Nc4cc(C(C)(C)C(F)(F)F)on4)c3)ncnc2cc1O` [Ex 263, 1-(3-(7-hydroxy-6-methoxyquinazolin-4-yloxy)phenyl)-3-(5-(1,1,1-trifluoro-2-methylpropan-2-yl)isoxazol-3-yl)urea] was tested, and the S35 was “C (0.20 < C ≦ 0.40)”.
`COc1cc2ncnc(Oc3cc(NC(=O)Nc4cc(C(C)(C)C)nn4-c4ccc(C)cc4)c(F)cc3F)c2cc1OC` [Ex 272, 1-(3-tert-butyl-1-p-tolyl-1H-pyrazol-5-yl)-3-(5-(6,7-dimethoxyquinazolin-4-yloxy)-2,4-difluorophenyl)urea] was tested, and the S35 was “D (D > 0.40)”.
For `CCOc1cc2c(Sc3cccc(NC(=O)Nc4cc(C(C)(C)F)no4)c3)ncnc2cc1OC` [Ex 394, 1-(3-(6-ethoxy-7-methoxyquinazolin-4-ylthio)phenyl)-3-(3-(2-fluoropropan-2-yl)isoxazol-5-yl)urea], the S35 was “C (0.20 < C ≦ 0.40)”.
In the case of `CCc1cc(NC(=O)Nc2cccc(Sc3ncnc4cc(OC)c(OC)cc34)c2)n(-c2ccccc2)n1` [Ex 399, 1-(3-(6,7-dimethoxyquinazolin-4-ylthio)phenyl)-3-(3-ethyl-1-phenyl-1H-pyrazol-5-yl)urea], the S35 was “C (0.20 < C ≦ 0.40)”.
